According to publication PMC4111740, “Ligand-Based Pharmacophore Modeling and Virtual Screening for the Discovery of Novel 17β-Hydroxysteroid Dehydrogenase 2 Inhibitors” (Journal of Medicinal Chemistry, 2014):
Entries after “also recorded” stand apart in the source; their conditions may differ.

biological target: T1, 17β-HSD2 (Homo sapiens, UniProt P37059); assay: 17β-HSD2 activity in lysates of transfected HEK-293 cells (cell-free, radiolabeled estradiol); type: biochemical; conditions: Table S2, virtual screening hits, tested at 20 μM in lysates
T1 construct: expressed in transfected cells; host or cells: HEK-293 (transient, calcium phosphate), lysate
T1 sequence (P37059 1-387): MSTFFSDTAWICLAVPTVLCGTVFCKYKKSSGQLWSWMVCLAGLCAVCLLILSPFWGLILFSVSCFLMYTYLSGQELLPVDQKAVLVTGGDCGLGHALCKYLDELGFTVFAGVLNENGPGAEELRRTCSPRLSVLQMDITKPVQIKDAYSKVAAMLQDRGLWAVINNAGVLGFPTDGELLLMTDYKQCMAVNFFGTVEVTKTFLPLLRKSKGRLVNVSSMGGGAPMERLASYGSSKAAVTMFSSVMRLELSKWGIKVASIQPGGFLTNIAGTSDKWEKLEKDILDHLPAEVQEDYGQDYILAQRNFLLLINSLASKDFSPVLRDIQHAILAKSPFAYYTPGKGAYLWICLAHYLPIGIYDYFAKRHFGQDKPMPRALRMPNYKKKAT
Procedure: Next, the 17β-HSD2 inhibitory activities of the chosen hits were evaluated in a cell-free assay. The activities were first determined at an inhibitor concentration of 20 μM using lysates of transfected HEK-293 cells. In all experiments, vehicle was included as negative control and N-(3-methoxyphenyl)-N-methyl-5-m-tolylthiophene-2-carboxamide (compound 19 from ref ([26])) as positive control.
HEK-293 cells were transfected by the calcium phosphate precipitation method with plasmids for human 17β-HSD1, 17β-HSD2, or 11β-HSD2. Cells were cultivated for 48 h, washed with phosphate-buffered saline, and centrifuged for 4 min at 150g. After removal of the supernatants, cell pellets were snap frozen in dry ice and stored at −80 °C until further use.
Lysates of human embryonic kidney cells (HEK-293) expressing either 17β-HSD1 or 17β-HSD2 were incubated for 10 min at 37 °C in TS2 buffer in a final volume of 22 μL containing either solvent (0.2% DMSO/chloroform) or the inhibitor at the respective concentration. N-(3-Methoxyphenyl)-N-methyl-5-m-tolylthiophene-2-carboxamide (compound 19 in ref ([26])) and apigenin[50] were used as positive controls for 17β-HSD1 and 17β-HSD2, respectively, in all experiments. 17β-HSD1 activity was measured in the presence of 190 nM unlabeled estrone, 10 nM radiolabeled estrone, and 500 μM NADPH. In contrast, 17β-HSD2 activity was determined in the presence of 190 nM unlabeled estradiol, 10 nM radiolabeled estradiol, and 500 μM NAD^+. Reactions were stopped after 10 min by adding an excess of unlabeled estradiol and estrone (1:1, 2 mM in methanol). Possible promiscuous enzyme inhibition by aggregate formation of the chemicals was excluded by measuring the inhibition of the enzyme activity by the compounds in the presence of 0.1% Triton X-100.[36] […] To exclude irreversible inhibition by the compounds investigated,[35] cell lysates were preincubated with the compounds for 0, 10, and 30 min, respectively, followed by measurement of the enzyme activity. […] The steroids were separated by TLC, followed by scintillation counting and calculation of substrate concentration. Data were collected from at least three independent measurements.

| 17β-HSD2 Activity (in words) | SMILES |
| --- | --- |
| Inactive | O=C(Cn1nnc2ccccc21)c1ccc(-c2ccccc2)cc1 [AK-918/11592002] |
| Inactive | COc1ccc(C(=O)COC(=O)c2ccc(O)cc2)cc1 [AK-918/12108002] |
| Inactive | O=C(COC(=O)c1ccc2c(c1)C(=O)N(c1cccc(O)c1)C2=O)c1ccccc1 [AK-918/37182008] |
| Inactive | Cc1ccccc1/C=N/NC(=O)Cn1nnc2ccccc21 [AK-968/11367105] |
| Inactive | COc1ccccc1NCC(=O)N/N=C/c1sccc1C [AN-329/11413636] |
| Inactive | COc1cc(C=Nc2ccc(OC(F)(F)F)cc2)ccc1O [AN-329/11450193] |
| Inactive | O=C(COc1ccc(-c2ccccc2)cc1)Nc1ccccc1C(=O)NC1CCCCC1 [AN-329/42613159] |
| Inactive | COc1ccc(OC)c(NC(=O)C(C)Oc2ccc(-c3ccccc3)cc2)c1 (stereo not drawn) [AN-329/42958201] |
| Inactive | Oc1cccc(C(O)CNCc2ccncc2)c1 (stereo not drawn) [AN-465/42246299] |
| Inactive | COC(=O)c1cc(NC(=O)c2ccc(OC)cc2)ccc1O [AN-652/43163172] |
| Inactive | O=C(Nc1ccc(O)cc1)c1ccc2c(c1)C(=O)N(Cc1ccco1)C2=O [AN-979/41971109] |
| Inactive | O=C(CSc1ccccc1)Nc1ccc(C(=O)Nc2ccc(O)cc2)cc1 [AN-979/42723474] |
| Inactive | COc1cc(C(=O)Nc2cc(C(F)(F)F)ccc2N2CCOCC2)ccc1O [AP-906/41927951] |
| Inactive | Oc1ccc(-c2cn3cc(C(F)(F)F)ccc3n2)cc1 [AQ-776/42801516] |

More lines, now with the values behind:

| SMILES | 17β-HSD2 Activity (in words) |
| --- | --- |
| CN(C)Cc1ccccc1Sc1ccc(O)cc1O [AE-641/30109032] | Inactive |
| O=C(Cn1nnc2ccccc21)N/N=C/c1ccccc1F [AG-205/07947037] | Inactive |
| COc1ccccc1NC(=O)CCC(=O)OC(C)C(=O)c1ccccc1 (stereo not drawn) [AG-690/15435864] | Inactive |
| CCn1c(Cc2ccccc2)nnc1SCC(=O)Nc1ccccc1OC [AG-690/40750820] | Inactive |
| COc1ccccc1NC(=O)COc1ccc(/C=c2/sc3n(c2=O)CCN=3)cc1 [AH-487/15020191] | Inactive |
| CCCC(=O)Nc1ccc(C(=O)NCc2ccc(OC)cc2)cc1 [AJ-292/42647512] | Inactive |

same assay, conditions: relative to compound 12

| less potent than the most active hit (17β-HSD2) | SMILES |
| --- | --- |
| 5 fold | O=C(CSc1nccc(O)n1)Nc1cccc2nsnc12 [Compound 15] |

biological target: T1, 17β-HSD2; assay: 17β-HSD2 activity in intact transfected HEK-293 cells; type: cell-based; conditions: intact HEK-293 cells
Procedure: (§1) Human embryonic kidney cells (HEK-293) were cultivated in DMEM containing 4.5 g/L glucose, 10% fetal bovine serum, 100 U/mL penicillin, 0.1 mg/mL streptomycin, 1× MEM nonessential amino acids, and 10 mM HEPES buffer, pH 7.4. The cells were incubated at 37 °C until 80% confluency. The cells were transfected using the calcium phosphate method with expression plasmids for 17β-HSD2 and 17β-HSD3. After 24 h, the cells were trypsinized and seeded on poly-L-lysine-coated 96-well plates (15 000 cells/well).
(§2) The inhibitory activities were measured 24 h after seeding as follows: old medium was aspirated and replaced by 30 μL of charcoal-treated DMEM (cDMEM). Ten microliters of inhibitor dissolved in cDMEM into the respective concentration was added, and mixtures were preincubated at 37 °C for 20 min. 17β-HSD2 inhibitory activities were measured in the presence of 190 nM unlabeled estradiol and 10 nM radiolabeled estradiol. N-(3-Methoxyphenyl)-N-methyl-5-m-tolylthiophene-2-carboxamide (compound 19 in ref ([26])) was used as positive control. The reaction mixtures were incubated for 20 min, and the reactions were stopped by adding an excess of estradiol and estrone (1:1, 2 mM in methanol) to the mixture.

| SMILES | 17β-HSD2 inhibition in intact cells (in words) |
| --- | --- |
| Cc1cc(C)c(OCC(=O)N/N=C/c2ccc(O)cc2O)c(Br)c1 [Compound 11] | concentration-dependently inhibited 17β-HSD2 |
| O=S(=O)(Nc1ccc(O)c(Cl)c1)c1ccc(F)cc1 [Compound 13] | concentration-dependently inhibited 17β-HSD2 |
| O=C(CSc1nccc(O)n1)Nc1cccc2nsnc12 [Compound 15] | concentration-dependently inhibited 17β-HSD2 |

biological target: T2, 11β-HSD1 (Homo sapiens, UniProt P28845); assay: 11β-HSD1 activity in lysates of stably transfected cells; type: biochemical; conditions: lysates
T2 construct: expressed in transfected cells
T2 sequence (P28845 whole entry): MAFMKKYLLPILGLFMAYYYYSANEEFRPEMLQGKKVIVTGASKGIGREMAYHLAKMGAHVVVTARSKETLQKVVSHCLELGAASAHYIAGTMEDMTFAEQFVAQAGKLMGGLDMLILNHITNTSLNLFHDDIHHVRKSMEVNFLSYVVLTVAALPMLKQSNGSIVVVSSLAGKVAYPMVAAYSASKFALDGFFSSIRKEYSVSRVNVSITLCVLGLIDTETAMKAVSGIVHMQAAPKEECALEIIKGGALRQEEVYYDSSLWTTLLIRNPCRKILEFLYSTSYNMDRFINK
Procedure: The methods to determine 11β-HSD1 and -2 activity were performed as described previously.[64] Briefly, lysates of stably transfected cells, expressing either 11β-HSD1 or 11β-HSD2, were incubated for 10 min at 37 °C in TS2 buffer in a final volume of 22 μL containing either solvent (0.2% DMSO) or the inhibitor at the respective concentration. The nonselective 11β-HSD inhibitor glycyrrhetinic acid was used as positive control. Activity measurements of 11β-HSD1 were performed with 190 nM unlabeled cortisone, 10 nM radiolabeled cortisone, and 500 μM NADPH. To measure 11β-HSD2 activity, lysates were incubated with 40 nM unlabeled cortisol, 10 nM radiolabeled cortisol, and 500 μM NAD^+. Reactions were stopped after 10 min by adding an excess of unlabeled cortisone and cortisol (1:1, 2 mM in methanol). The steroids were separated by TLC, followed by scintillation counting and calculation of substrate concentration. Data were collected from at least three independent measurements.

| SMILES | 11β-HSD1 versus 17β-HSD2 potency (in words) |
| --- | --- |
| COc1ccc(S(=O)(=O)Nc2ccc(O)c3c2CCCC3)cc1 [Compound 20] | almost equipotent toward 17β-HSD2 and 11β-HSD1; also recorded: equipotent 17β-HSD2 and 11β-HSD1 inhibitors |

biological target: T3, 17β-HSD3 (Homo sapiens, UniProt P37058); assay: 17β-HSD3 activity in intact transfected HEK-293 cells; type: cell-based; conditions: intact cells
T3 construct: expressed in transfected cells; host or cells: HEK-293 (transient, calcium phosphate), intact cells
T3 sequence (P37058 1-310): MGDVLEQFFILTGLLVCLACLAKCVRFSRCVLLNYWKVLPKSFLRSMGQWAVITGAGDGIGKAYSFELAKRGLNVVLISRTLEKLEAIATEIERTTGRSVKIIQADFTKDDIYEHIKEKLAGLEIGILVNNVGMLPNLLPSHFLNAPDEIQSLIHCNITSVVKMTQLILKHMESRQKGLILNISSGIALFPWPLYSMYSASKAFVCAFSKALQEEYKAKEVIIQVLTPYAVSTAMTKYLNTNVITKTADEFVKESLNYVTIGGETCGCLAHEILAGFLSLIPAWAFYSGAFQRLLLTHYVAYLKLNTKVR
Procedure: as §1, §2
17β-HSD3 inhibitory activities were measured in the presence of 190 nM unlabeled androstenedione and 10 nM radiolabeled androstenedione. Benzophenone-1 was used as positive control. The reaction mixtures were incubated for 30 min, and the reactions were stopped by adding an excess of androstenedione and testosterone (1:1, 2 mM in methanol). The steroids were separated by TLC, followed by scintillation counting and calculation of substrate concentration. Data was obtained from three independent measurements.

| 17β-HSD3 inhibition (in words) | SMILES |
| --- | --- |
| equipotent toward these two enzymes | O=S(=O)(Nc1ccc(O)c(Cl)c1)c1ccc(F)cc1 [Compound 13] |
| weak 17β-HSD3 inhibitors | Cc1cc(C)c(S(=O)(=O)Nc2cccc(O)c2)cc1C [Compound 16] |

| SMILES | 17β-HSD3 inhibition (in words) |
| --- | --- |
| Cc1cc(C)c(OCC(=O)N/N=C/c2ccc(O)cc2O)c(Br)c1 [Compound 11] | more active against 17β-HSD3 than 17β-HSD2 |

same assay, conditions: rest activity at 20 μM, Table 3

| 17β-HSD3 intact inhibition class (n.i.) | SMILES |
| --- | --- |
| n.i | COc1ccc(S(=O)(=O)Nc2ccc(O)c3c2CCCC3)cc1 [Compound 20] |
| n.i | O=S(=O)(Nc1cccc(O)c1)c1ccc(Br)cc1 [Compound 21] |
| n.i | Cc1ccc(NS(=O)(=O)c2cccc(Br)c2)cc1O [Compound 24] |

system: 17β-HSD2; assay: not given; conditions: Table S1; ref SI 1, 2, 4; read-out: IC50 17β-HSD2 (test set); cited from earlier work

| SMILES | IC50 |
| --- | --- |
| Oc1ccc(-c2ccc3c(O)cccc3c2)cc1 [Compound 1] | 302 nM |
| Cc1cccc(-c2ccc(C(=O)N(C)Cc3cccc(O)c3)s2)c1 [Compound 2] | 164 nM |
| CN1C(=O)C[C@H](c2ccccc2)[C@@H]1[C@H](O)c1ccc(-c2cccnc2)s1 [Compound 3] | 50 nM |
| COc1cccc(-c2ccc(C(=O)N(C)Cc3cccc(O)c3)s2)c1F [Compound 6] | 61 nM |
| COc1ccc(-c2ccc(C(=O)N(C)Cc3cccc(O)c3)s2)cc1 [Compound 7] | 161 nM |
| CN1C(=O)C[C@H](c2ccccc2F)[C@@H]1[C@H](O)c1ccc(-c2ccccc2)s1 [Compound 8] | 10 nM |

same assay, conditions: Table S1; ref SI 3; read-out: IC50 17β-HSD2 (test set); cited from earlier work

| SMILES | IC50 |
| --- | --- |
| Oc1cccc(-c2ccnc(-c3ccc(Cl)s3)c2)c1 [Compound 4] | 470 nM |

same assay, conditions: at 1 µM, Table S1; ref SI 1, 2, 3, 5, 6; cited from earlier work

| SMILES | 17β-HSD2 enzyme inhibition (test set) |
| --- | --- |
| Oc1cccc(-c2ccccc2)c1 [580-51-8] | < 10% |
| CS(=O)(=O)Nc1ccc(-c2ccc(O)cc2)cc1 [319015-65-1] | < 10% |
| CC(=O)Nc1cccc(-c2ccc(O)cc2)c1 [462660-26-0] | < 10% |

same assay, conditions: at 10 µM, Table S1; ref SI 7, 10; cited from earlier work

| SMILES | 17β-HSD2 enzyme inhibition (test set) |
| --- | --- |
| C[C@]12CC[C@@H]3c4ccc(O)cc4C(=O)C[C@H]3[C@@H]1CCC2=O [1476-34-2] | < 10% |
